Test results reported in patent publication US5604227A, “Pyridazinedione compounds useful in treating neurological disorders” (Imperial Chemical Industries PLC, priority 1991, dated 1997).
Where two headings read alike, the source gives them in different places.

Tests used:
NMDA receptor [1] = conditions: reference antagonists, general statement; cited from earlier work
[2] = biological target: glycine receptor of the NMDA receptor complex; test: [3H]-glycine binding assay (Test A); set-up: species or system rat (Sprague-Dawley); conditions: [3H]-glycine 20 nM, rat cortex/hippocampus membranes, pH 7.1, 30 min, 4° C.
Text: (§1) The actions of compounds according to the invention as antagonists at the glycine receptor of the NMDA receptor complex can be shown by one or more standard tests such as the [^3 H]-glycine binding assay (Test A), by functional assays in vitro such as tests for measuring glutamate-evoked contractions of the guinea pig ileum (Test B) and/or tests for measuring antagonism of NMDA-induced evoked response in hippocampal slices (Test C), and by tests in vivo such as ischemia induced by carotid occlusion in the gerbil model (Test D).
In the [^3 H]-glycine binding assay, neuronal synaptic membranes are prepared from adult (about 250 g) male Sprague-Dawley rats. Freshly dissected cortices and hippocampi are homogenized in 0.32M sucrose (110 mg/mL). Synaptosomes are isolated by centrifugation (1000 xg, 10 min), the supernatant is pelleted (20,000 xg, 20 min) and resuspended in double-distilled water. The suspension was centrifuged for 20 minutes at 8,000 xg. The resulting […] and bully coat are washed twice (48,000 xg, 10 mins, resuspension in double-deionized water). The final pellet is quickly frozen (dry ice/ethanol bath) under double-deionized water and stored at -70° C.
On the day of the experiment, thawed synaptic membranes are homogenized with a Brinkmann Polytron (tm, Brinkmann Instruments, Westbury, N.Y.) tissue homogenizer in 50 millimolar tris(hydroxymethyl)aminomethane citrate, pH 7.1. The membranes are incubated with 0.04% Sufact-AMPS X100 (tm, Pierce, Rockford, Ill.) in buffer for 20 minutes at 37° C. and washed six times by centrifugation (48,000 xg, 10 min) and resuspended in buffer. The final pellet is homogenized at 200 mg wet weight/mL of the buffer for the binding assay.
For [^3 H]-glycine binding at the N-methyl-D-aspartate receptor, 20 nanomolar [^3 H]-glycine (40-60 Ci/mmol, New England Nuclear, Boston, Mass.) is incubated with the membranes suspended in 50 millimolar tris (hydroxymethyl)aminomethane citrate, pH 7.1 for 30 minutes at 4° C. […] Radioactivity is estimated by liquid scintillation counting. […]

[3] = system: neuronal damage in the hippocampus; test: gerbil ischemic model, bilateral carotid occlusion (Test D); assay type: in vivo, Mongolian gerbils; conditions: 10 mg/Kg ip, pre- and post-occlusion (e.g. 45 min before and 5 min after)
Text: as §1
When testing in vivo using the gerbil ischemic model, adult female Mongolian gerbils (50-70 g) are anesthetized with 2 to 3 % halothane. The bilateral common carotid arteries at the neck are exposed and occluded with microaneurysm clips. After 10 min (unless specified), the clips are removed and the blood flow through the carotid arteries is restored and the skin is sutured. Test compounds are administered intraperitoneally both pre- and post-occlusion, for example 45 minutes before and 5 minutes after occlusion of the carotid arteries. Sham-operated animals are treated in the same manner except that the arteries are not clamped. Gross behavioral observations along with motor activity are recorded for 2 hr on the first (24 hr) day following the occlusion. After 4 days, subjects are sacrificed (decapitation), brains are removed, fixed, sectioned and stained with hematoxylin/eosin and cresyl violet.
The brain sections are rated for neuronal damage in the hippocampus using the following rating scale:
1=slight damage (up to 25%)--restricted to CA1/subiculum border
2=moderate damage (up to 50%)--obvious damage, restricted to less than half of CA1 field
3=marked damage (up to 75%)--involving greater than half of CA1 field
4=damage extending beyond CA1 field
Sections (7 micron) are evaluated from each brain. […] The average brain damage rating score for each group is recorded, and the damage scores of the drug treated group are compared to the vehicle-treated group using Wilcoxon-Rank Sum test. […]

NMDA receptor [4] = test: hippocampal slice test (HST), antagonism of NMDA-induced evoked response (Test C); assay type: cell-based, rat (Sprague-Dawley); conditions: 5 μM, 0 Mg++
Text: as §1
The characterization of a compound as a glycine antagonist in the hippocampal slice test (HST) is dependent on (1) the ability of the compound to inhibit NMDA receptor-mediated synaptic transmission in hippocampal slices and (2) the subsequent reversal of these inhibitory effects by D-serine.
The procedure for the HST is as follows. Transverse hippocampal slices are obtained from male Sprague-Dawley rats weighting 80-150 gm. […]
For the electrophysiology part of the experiments, bipolar tungsten stimulating electrodes are positioned in the stratum radiatum of the CA3 cell body region of the hippocampus and a single-barrel glass microelectrode filled with Krebs-Ringer solution is positioned in the CA1 cell body region. Low frequency stimulation is then applied to area CA3 which evokes a primary population spike (PS) recorded from CA1. […]

[5] = biological target: glycine receptor of the NMDA receptor complex (Cavia porcellus, UniProt A0A286XML8); test: glutamate-evoked contractions of the guinea pig ileum (Test B); assay type: cell-based; conditions: 100 micromolar glutamate-evoked contractions, compound 5 min before glutamate
Text: as §1
For glutamate-evoked contractions of the guinea pig ileum, the methodology is as described previously (Luzzi et. al., Br. J. Pharmacol., 95, 1271-1277 (1989)). The longitudinal muscle and associated myenteric plexus are removed and placed in oxygenated modified Krebs-Henseleit solution (118 millimolar NaCl, 4.7 millimolar KCl, 2.5 millimolar CaCl, 1.2 millimolar KH2 PO4, 25 millimolar NaHCO3, and 11 millimolar glucose). Tissues are suspended on glass rods in organ baths under a resting tension of 0.5 g. After an initial depolarization with 80 millimolar potassium ion to remove possible blockade of the NMDA receptor channel complex with magnesium, twitch responses are evoked with 100 micromolar glutamate. Isometric mechanical responses are recorded. Tissues are equilibrated for at least 2 hours prior to addition of compounds.
A dose response curve for the effect of the unknown on the magnitude of the glutamate-evoked contractions is generated. Glutamate-evoked contractions are generated at 20 minute intervals, with the test compound added 5 minutes before the glutamate. The magnitude of the contraction with each dose of the unknown is expressed relative to the control, the third contraction evoked by 100 micromolar glutamate alone in the same tissue bath. The IC50 is obtained from a least-squares regression of a logit-log transformation of the data.
After the last contraction for the dose-response curve, 100 micromolar glycine is added to the bath 10 minutes after the previous addition of glutamate. […]

SMILES | reversal of the inhibition by D-serine (NMDA receptor [1]) | IC50 [2] [µM] | neuroprotection (relative to sham-operated control) [3] | IC50 [5] [µM] | further results
O=C(O)c1cc(O)c2ccc(Cl)cc2n1 [7-chlorokynurenic acid] | reversed by D-serine | – | – | – | inhibition of the secondary PSs (NMDA receptor [1]): inhibit the secondary PSs
NC(CCCP(=O)(O)O)C(=O)O (stereo not shown) [APV] | not reversed by D-serine | – | – | – | –
O=C(O)C1CN(CCCP(=O)(O)O)CCN1 (stereo not shown) [CPP] | not reversed by D-serine | – | – | – | –
O=c1[nH][nH]c(=O)c2c(O)c3ccc(Cl)cc3nc12 [Example 2, 7-Chloro-2,3-dihydro-10-hydroxypyridazino[4,5-b]quinoline-1,4-dione] | – | 0.24 | Over 70% | 2.1 | antagonism in the hippocampal slice test (inhibition of secondary population spikes) (NMDA receptor [4]): antagonist; reversal of the inhibition by D-serine (NMDA receptor [4]): reversed by D-serine
O=c1[nH][nH]c(=O)c2c(O)c3c(Cl)cc(Cl)cc3nc12 [Example 4, 7,9-Dichloro-2,3-dihydro-10-hydroxypyridazino[4,5-b]quinoline-1,4-dione] | – | 0.08 | Over 70% | 2.3 | –
O=c1[nH][nH]c(=O)c2c(O)c3ccc([N+](=O)[O-])cc3nc12 [Example 11, 2,3-Dihydro-10-hydroxy-7-nitropyridazino[4,5-b]quinoline-1,4-dione] | – | 8.5 | over 60% | 86 | –
NC1CCN(O)C1=O (stereo not shown) [HA-966] | reversed by D-serine | – | – | – | inhibition of the secondary PSs (NMDA receptor [1]): inhibit the secondary PSs
C[C@]12N[C@H](Cc3ccccc31)c1ccccc12 [MK-801] | not reversed by D-serine | – | – | – | –
c1ccc(C2(N3CCCCC3)CCCCC2)cc1 [PCP] | not reversed by D-serine | – | – | – | –
